From patent US20150148383A1, “Methods for Inhibiting or Reversing Epiretinal Membrane Formation” (Regenerative Research Foundation, priority 2013, published 2015) come the findings set out here.

For test [1], the system named is RPE cells. Kind of test: RPE morphology in vitro by light microscopy. The format is cell-based, human. The settings on record: 10 mM nicotinamide vs no nicotinamide. From the text: (§1) Primary adult RPE cells were obtained from cadaveric human eyes under IRB-approved protocols, within 36-hours of the time of death. The anterior half of the eye was removed followed by the vitreous, and retina, isolating the posterior eyecup with the RPE/Bruch's membrane/choroid complex intact (as described in Blenkinsop T A, et al. The culture and maintenance of functional retinal pigment epithelial monolayers from adult human eye. 2012; Salero E et al. Adult human RPE can be activated into a multipotent stem cell that produces mesenchymal derivatives. Cell Stem Cell. 2012; 10(1):88-95). […] Once the primary (passage zero) cells reached confluence (˜20 days), the FBS concentration was reduced to 5%. Then, following the protocol developed by Salero S et al., 2012 (supra), the RPE were activated to proliferate in RPE medium with 5% FBS. The expanded RPE cells were plated at 30,000 cells per well in a 24-well plate and cultured in DMEM/F12, 5% FBS. Proliferation rates were measured by manual and/or automated counting of cell number as a function of time.
Cultures were imaged at 32× on a Zeiss Observer.D1 fluorescent microscope.
Cultured RPE cells were analyzed by light microscopy.

In test [2] the test system is Adult human RPE. The test is described as follows: Transepithelial resistance (TER) of RPE on transwells. The settings on record: measured weekly for one month; presence vs absence of nicotinamide. The format is cell-based. On the procedure:
The transepithelial resistance (TER) is measured during and after treatment of hRPE cells cultured in 12-well 0.4 μm transwell inserts using the EVOM2 World Precision Instruments Volt Ohm Meter protocol. Resistance is measured in Ω-cm^2 and recorded prior to treatment to confirm that all wells are at approximately the same TER. The TER of a cell-free transwell insert of ˜110 Ω-cm^2 is subtracted to obtain the resistance of the cellular epithelium. TER is measured in each well after treatment to assess the change caused by nicotinamide. Adult human RPE were plated on semi-permeable polyester transwells and transepithelial resistance was measured weekly for one month.

Test [3] has as its system human RPE cells. Kind of test: ZO-1 tight junction protein immunostaining. The test is classed as cell-based. The protocol:
Cells were fixed with 4% paraformaldehyde for 15 minutes, permeabilized with 0.2% Triton in PBS, blocked with 1% BSA for 30 minutes. Primary antibodies were used at 1:100 dilution in PBS. The corresponding Alexafluor 647 secondary antibodies were used for the respective primary antibody and imaged on a Zeiss Observer.D1 fluorescent microscope.

Test [4] relates to adult human RPE cells. Kind of test: Gene expression analysis by real time PCR of RPE and mesenchymal markers. The test is classed as cell-based. The settings on record: 10 mM nicotinamide, relative to control. (In qPCR the cycle at which signal appears reflects the starting amount.)
In test [5] the test system is RPE cells. The test is described as follows: Dose response for prevention of epithelial to mesenchymal transition, SNAIL staining read-out. The test is classed as cell-based, human. Particulars: all concentrations: 10 μM, 100 μM, 1 mM or 10 mM nicotinamide; 5 days. On the procedure: Cells were fixed with 4% paraformaldehyde for 15 minutes, permeabilized with 0.2% Triton in PBS, blocked with 1% BSA for 30 minutes. Primary antibodies were used at 1:100 dilution in PBS. The corresponding Alexafluor 647 secondary antibodies were used for the respective primary antibody and imaged on a Zeiss Observer.D1 fluorescent microscope. A dose response curve for the effect of nicotinamide on the prevention of epithelial to mesenchymal transition was determined using SNAIL expression as a read-out. RPE cells were cultured at 30,000 cells/well in a 24 well plate and cultured for 5 days in the presence of media containing 10 μM, 100 μM, 1 mM or 10 mM nicotinamide or control (no nicotinamide). The media was changed 3 times, and replaced with media containing the same concentration of nicotinamide, after which the cells were fixed and stained with fluorescently-labeled anti-SNAIL antibody. At all concentrations, SNAIL staining was decreased by application of nicotinamide.

The subject of test [6] is RPE cells. Kind of test: RPE cell proliferation assay (Ki67 immunostaining, cell number). The format is cell-based, human. Particulars: 10 mM nicotinamide; 5 days in DMEM/F12, 5% FBS.
Source text: as §1
Cells were fixed with 4% paraformaldehyde for 15 minutes, permeabilized with 0.2% Triton in PBS, blocked with 1% BSA for 30 minutes. Primary antibodies were used at 1:100 dilution in PBS. […]
RPE cells were plated at 30,000 cells per well in a 24 well plate and cultured for 5 days in DMEM/F12, 5% FBS and cell proliferation was measured.

Test [7] deals with fibroblastic cultures derived from RPE. Kind of test: Reversal of epithelial to mesenchymal transition in fibroblastic cultures derived from RPE. The format is cell-based, human. Particulars: 10 mM nicotinamide, media changed 3 times a week; micrograph at 8 weeks. The protocol: Epithelial to mesenchymal transition (EMT) was determined in fibroblastic cultures as follows: cells were plated 30,000 cells per 1 cm^2 tissue culture plate in DMEM/F12 with 5% FBS with the addition of 10 ng/ml TGFβ and 10 ng/ml TNFα to induce epithelial to mesenchymal transition (EMT). The extent of EMT was determined by the morphologic changes and immunohistochemical stains described above. Epithelial cells were plated at 30,000 cells/cm^2 and cultured until confluent (left image), after which 10 mM nicotinamide was added to the media, which was changed 3 times a week for 8 weeks (FIG. 10). The swirling fibroblastic morphology seen prior to addition of nicotinamide seen at the ‘3 week’ stage indicate the RPE cells have undergone EMT, losing their cobblestone morphology.

Test [8] has as its system Adult human RPE. The test is described as follows: Oxidative stress analysis: TBHP-induced TIMP-3 expression. Particulars: 500 μM TBHP 2 hours daily; presence vs absence of nicotinamide; quantitative PCR.

`NC(=O)c1cccnc1` [nicotinamide, Nicotinamide]: in test [1], the RPE cell morphology entry was “maintained their characteristic cobblestone morphology”. Besides, the transepithelial resistance result in test [2] is “increased over time”. For the same compound, the “pattern of ZO-1 expression” value in test [3] (10 mM nicotinamide vs control RPE cells) is “localized expression of tight junction protein ZO-1 peripherally around the cell borders”. The “ZO1 staining (junctional marker)” value in test [3] (10 mM nicotinamide vs no nicotinamide) was “high levels of ZO1 staining”. In test [4], the “MITF mRNA expression (RPE marker)” value is reported as “increased”, the “RPE65 mRNA expression (RPE marker)” value is “increased”, the “SLUG mRNA expression (mesenchymal marker)” value is reported as “decreased” and the “SNAIL mRNA expression (mesenchymal marker)” value is listed as “decreased”. The “TWIST mRNA expression (mesenchymal marker)” value in test [4] was “decreased”. The SNAIL staining entry in test [5] is listed as “decreased”. In addition, in test [6], the “immunostaining for the cell proliferation marker Ki67” value is “decreased immunostaining” and the total cell number entry is given as “decrease in the total cell number”. Also, the “cell morphology after EMT (reversal of EMT)” value in test [7] is recorded as “revert to their physiologic cobblestone morphology”. Further, the “TBHP-induced TIMP3 expression relative to day 0” value in test [8] is “suppressed”.
